Test results: PMC9964268, “A Novel, Highly Potent NADPH-Dependent Cytochrome P450 Reductase from Waste Liza klunzingeri Liver” (Marine Drugs, 2023)

Test system: T1, LkCPR; NADPH-dependent cytochrome P450 reductase from Liza klunzingeri liver
T1 construct: gene POR; native, purified from liver microsomes (detergent-solubilised; DEAE-Sepharose twice, 2',5'-ADP Sepharose 4B); about 75 kDa, monomer
Test: cytochrome c reduction at […] nm, Michaelis-Menten fit
Assay type: biochemical, Planiliza klunzingeri
Conditions: co-substrate cytochrome c at saturation (50 µM); potassium phosphate pH 7.5; room temperature; apparent Km

`NC(=O)C1=CN([C@@H]2O[C@H](COP(=O)(O)OP(=O)(O)OC[C@H]3O[C@@H](n4cnc5c(N)ncnc54)[C@H](OP(=O)(O)O)[C@@H]3O)[C@@H](O)[C@H]2O)C=CC1` [NADPH] showed a Km of 7.26 ± 0.2 µM.
